# Assay results taken from US11504385B2, “Proteolysis targeting chimeric molecule, preparation method, and application” (CHINA PHARMACEUTICAL UNIVERSITY, priority 2019, dated 2022).
# Legend:
# [1] = system: K562 cell line; test: Cell viability test (CellTiter-Glo), K562; type: cell-based
# Description: (§1) The operation method of the K562 cell viability test is as follows:
# (§2) 50 μL of K562, MCF-7, HCT116 and A549 cell suspensions were added to a 96-well plate and incubated for 12 hours. 10 μL of compound was added to the well and incubated for 48 hours. Operation was performed according to a CellTiter-Glo® luminescent cell viability assay kit (Promega). Nonlinear regression analysis data in GraphPad Prism 6 was used.
# [2] = system: A549; test: Cell viability test (CellTiter-Glo), A549; type: cell-based; conditions: A549, non-BCR-ABL dependent tumor cell line
# Description: as §1, §2
# [3] = system: HCT116; test: Cell viability test (CellTiter-Glo), HCT116; type: cell-based; conditions: HCT116, non-BCR-ABL dependent tumor cell line
# Description: as §1, §2
# [4] = system: HEK293T; test: Cell viability test, HEK293T; type: cell-based; conditions: non-BCR-ABL dependent cell line
# [5] = system: ABL gene; test: RT-qPCR, expression of the ABL gene in K562 cells; type: cell-based
# Excerpt: In order to test the degradation effect of the compound 4C on c-ABL and BCR-ABL proteins in K562 cells, the researchers performed an immunoblotting experiment. […] In order to exclude the possibility that the compound 4C affected the ABL gene to generate false positive expression, the researchers used RT-qPCR in K562 cells to study the expression of the ABL gene.
# The operation method of an RT-qPCR experiment is as follows:
# According to the related gene information in the NCBI database, the coding sequences were selected, and primers were designed and synthesized by GenScript Biotechnology Corporation under entrustment. The sequences are as follows:
# A K562 cell resuspension solution collected in a 1.5 mL centrifuge tube was centrifuged briefly. […] After mixing uniformly, the purity and concentration of the extracted RNA sample were detected using a spectrophotometer. […]
# 0.2 ml thin-walled PCR tubes were taken and numbered respectively. […] Water was added to each tube to 25 μl and mixed uniformly, and the mixed solutions were placed in an SLAN fluorescent quantitative PCR instrument. After pre-denaturation at 95° C. for 5 min, the mixed solutions were placed at 95° C. for 15 s→65° C. for 35 s (fluorescence detection), for 40 cycles.
# [6] = Photo-isomerization by UV-Vis absorption spectrum; type: physicochemical
# Description: Then, we explored the photodynamic characteristics of the compound 4C through UV-Vis absorption spectrum. […] In addition, since the compound 4C is a T-type optical switch, the cis configuration underwent self-heating relaxation under dark conditions to transform into the trans configuration, and T½ was about 10 hours at 25° C.
# [7] = target: T1, ABL (Homo sapiens, UniProt P00519); test: Simulated light control, ABL level in K562 cells (immunoblotting); type: cell-based; conditions: 100 nM for 24 hours, then fresh medium
# T1 construct: degradation effect of the compound 4C on c-ABL and BCR-ABL proteins in K562 cells; endogenous in cells; host or cells: K562
# Description: In order to simulate a light control process, the researchers treated K562 cells with the compound 4C-trans for 24 hours. Then the cells were transferred to fresh media and divided into 2 groups: one group was placed in a dark room (VIS group), and the other group was irradiated with UV after 0, 4, 8, 12, 16, and 24 hours of incubation to simulate the photo-isomerization process (UV group).
# The specific operation method for simulating light control is as follows:
# The compound 4C-trans at a final concentration of 100 nM was added to K562 cells, and the cells were incubated at 37° C. for 24 hours. The medium was washed off, and the cells were washed 2 times with 1*PBS. Then the cells were transferred to fresh 1640 medium (10% FBS, 1*glutamine) for culture, and divided into two groups: one group was placed in a dark room, and the other group was irradiated with UV-C light for 30 min every 4 hours. The cells were collected after transfer and incubation for 0, 4, 8, 16, and 24 hours respectively, and post-treatment of the cells was the same as that of immunoblotting.
# [8] = system: K562 cells; test: Time-effect experiment, apoptosis of K562 cells; type: cell-based; conditions: 250 nM, after 48 hours
# T1 sequence (P00519 whole entry): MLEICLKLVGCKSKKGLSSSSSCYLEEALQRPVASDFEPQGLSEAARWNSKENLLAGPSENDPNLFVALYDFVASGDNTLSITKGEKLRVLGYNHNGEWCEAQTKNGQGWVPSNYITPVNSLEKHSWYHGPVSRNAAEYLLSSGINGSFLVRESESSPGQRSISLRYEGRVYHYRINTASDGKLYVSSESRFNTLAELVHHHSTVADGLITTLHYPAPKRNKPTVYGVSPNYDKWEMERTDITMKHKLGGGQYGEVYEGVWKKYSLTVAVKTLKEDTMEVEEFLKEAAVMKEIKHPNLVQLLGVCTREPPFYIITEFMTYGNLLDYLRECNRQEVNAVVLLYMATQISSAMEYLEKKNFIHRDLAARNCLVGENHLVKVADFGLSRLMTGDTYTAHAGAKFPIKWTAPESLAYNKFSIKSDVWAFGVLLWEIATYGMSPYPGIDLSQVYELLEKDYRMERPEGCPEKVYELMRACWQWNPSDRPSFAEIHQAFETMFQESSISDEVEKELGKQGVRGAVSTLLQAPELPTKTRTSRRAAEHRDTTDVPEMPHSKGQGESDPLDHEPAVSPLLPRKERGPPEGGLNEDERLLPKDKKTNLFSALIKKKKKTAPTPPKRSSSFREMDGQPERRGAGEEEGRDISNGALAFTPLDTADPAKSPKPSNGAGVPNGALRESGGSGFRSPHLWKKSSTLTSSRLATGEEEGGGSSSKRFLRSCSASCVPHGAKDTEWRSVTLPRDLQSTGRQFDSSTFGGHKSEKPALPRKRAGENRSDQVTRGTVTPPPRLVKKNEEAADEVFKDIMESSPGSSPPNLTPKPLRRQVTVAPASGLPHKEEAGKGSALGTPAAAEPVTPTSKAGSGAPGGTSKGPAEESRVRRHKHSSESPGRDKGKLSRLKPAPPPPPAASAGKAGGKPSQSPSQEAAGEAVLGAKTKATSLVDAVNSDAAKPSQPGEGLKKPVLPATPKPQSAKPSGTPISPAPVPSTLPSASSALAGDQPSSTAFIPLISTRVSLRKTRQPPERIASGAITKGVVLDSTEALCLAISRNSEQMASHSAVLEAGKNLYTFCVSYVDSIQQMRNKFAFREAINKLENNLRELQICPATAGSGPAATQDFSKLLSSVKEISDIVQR
structure (smiles),measurement,setting,value
"Cc1nc(Nc2ncc(C(=O)Nc3c(C)cccc3Cl)s2)cc(N2CCN(CCCCOc3ccc(/N=N/c4ccc(C(=O)Nc5cccc6c5CN(C5CCC(=O)NC5=O)C6=O)cc4)cc3)CC2)n1 (stereo not drawn) [Compound 4C, (E)-N-(2-chloro-6-methylphenyl)-2-((6-(4-(4-(4-((4-((2-(2,6-dioxopiperidin-3-yl)-1-oxoisoindolin-4-yl)carbamoyl)phenyl)diazenyl)phenoxy)butyl)piperazin-1-yl)-2-methylpyrimidin-4-yl)amino)thiazole-5-carboxamide]",EC50,"[1]; Homo sapiens, K562 cells, 48 hours, CellTiter-Glo, read-out: median effective concentration (EC50)",28 nM
same,selectivity for the BCR-ABL dependent K562 cell line,"[1]; versus A549, HCT116, HEK293T, MCF-7",good selectivity
same,effect on cell viability,[2],hardly affects
same,effect on cell viability,[3],hardly affects
same,effect on cell viability,[4],hardly affects
same,"mRNA level of the ABL gene, time-effect","[5]; 500 nm, 48 hours",did not significantly decrease
same,"mRNA level of the ABL gene, dose-effect","[5]; different concentrations, 36 hours, compared with control group",did not change significantly
same,transformation from trans to cis configuration (absorbency-time curve at 361 nm),[6]; UV irradiation for 1 hour,almost completely transformed to the cis configuration
same,reversibility of the photosensitive switch (stability),[6]; irradiated with ultraviolet light and white light in turn for 5 times,still relatively stable
same,ABL level after washout,[7]; UV-C 30 min every 4 hours (UV group),increased over time
same,ABL level after washout,"[7]; dark room (VIS group), 0-24 hours",almost disappeared
same,apoptosis of K562 cells,[8],obvious apoptosis
